EC50 data for 19 molecules are collected here from patent US20220089575A1, “FARNESOID X RECEPTOR AGONISTS AND USES THEREOF” (Metacrine, Inc., priority 2017, published 2022).

SMILES strings stand for the structures. A value given as a limit tells only on which side of the number the result lay.

This assay addresses T1, hFXR (Homo sapiens, UniProt Q96RI1).
T1 construct: expressed in transfected cells; host or cells: CV-1 cells
T1 sequence (Q96RI1 1-486): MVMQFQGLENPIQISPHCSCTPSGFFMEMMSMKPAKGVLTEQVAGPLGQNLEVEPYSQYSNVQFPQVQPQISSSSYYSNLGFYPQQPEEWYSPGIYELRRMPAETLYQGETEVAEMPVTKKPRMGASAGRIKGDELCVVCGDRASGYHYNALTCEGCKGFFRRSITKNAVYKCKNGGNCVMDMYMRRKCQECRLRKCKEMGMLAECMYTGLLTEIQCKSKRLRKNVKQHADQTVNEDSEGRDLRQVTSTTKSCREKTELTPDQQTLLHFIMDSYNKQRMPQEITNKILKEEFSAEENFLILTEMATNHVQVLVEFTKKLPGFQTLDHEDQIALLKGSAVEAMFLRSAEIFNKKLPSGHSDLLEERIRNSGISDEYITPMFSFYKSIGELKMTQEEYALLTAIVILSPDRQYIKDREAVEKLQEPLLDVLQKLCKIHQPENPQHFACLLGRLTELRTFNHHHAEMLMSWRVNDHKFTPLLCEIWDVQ
T1 sequence (P19793 1-462 partner): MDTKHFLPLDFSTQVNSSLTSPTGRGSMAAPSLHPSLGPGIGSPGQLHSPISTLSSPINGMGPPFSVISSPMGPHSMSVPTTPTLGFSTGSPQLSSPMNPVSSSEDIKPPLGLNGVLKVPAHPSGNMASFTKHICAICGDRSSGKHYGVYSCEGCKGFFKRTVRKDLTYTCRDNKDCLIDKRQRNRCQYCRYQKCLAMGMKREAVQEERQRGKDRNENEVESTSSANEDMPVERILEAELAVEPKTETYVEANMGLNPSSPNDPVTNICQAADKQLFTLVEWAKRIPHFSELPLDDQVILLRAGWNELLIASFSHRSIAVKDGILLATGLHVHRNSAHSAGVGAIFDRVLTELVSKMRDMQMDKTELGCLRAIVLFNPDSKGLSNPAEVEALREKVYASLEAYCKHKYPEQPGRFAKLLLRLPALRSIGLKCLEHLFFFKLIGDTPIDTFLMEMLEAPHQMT
As to the kind of experiment: In Vitro FXR Assay (TK): TK-ECRE-luc reporter in transfected CV-1 cells. It is filed as cell-based. Conditions: 18 hrs, luminescence, maximum efficacy of <25% of the Fexarmine control classified as '+'. In outline: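 Reporter transactivation by hFXR was measured in CV-1 cells carrying hRXR and a TK-ECRE-luc construct, with compound treatment for 18 h before lysis and luminescence detection.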

Take `COc1ccc([C@H]2CC[C@H](CN(c3cccc(-c4cnn(C5CC5)c4)c3)C(=O)[C@H]3CC[C@H](NC(=O)OCCO)CC3)CC2)cc1C` [Compound 26.05, 2-Hydroxyethyl (trans-4-((3-(1-cyclopropyl-1H-pyrazol-4-yl)phenyl)((trans-4-(4-methoxy-3-methylphenyl)cyclohexyl)methyl)carbamoyl)cyclohexyl)carbamate]: the EC50 is ≤ 250 nM.

For the molecule `COc1ccc([C@H]2CC[C@H](CN(c3cccc(-c4cnc(C5CC5)s4)c3)C(=O)[C@H]3CC[C@H](CC(=O)O)CC3)CC2)nc1C#N` [Compound 20.01, 2-(trans-4-(((trans-4-(6-Cyano-5-methoxypyridin-2-yl)cyclohexyl)methyl)(3-(2-cyclopropylthiazol-5-yl)phenyl)carbamoyl)cyclohexyl) acetic acid], the EC50 was ≤ 250 nM.

For `COc1ccc([C@H]2CC[C@H](CN(c3cc(-c4coc(C5CC5)n4)ccn3)C(=O)[C@H]3CC[C@H](CNC(=O)CO)CC3)CC2)nc1C` [Compound 26.29, trans-N-(4-(2-Cyclopropyloxazol-4-yl)pyridin-2-yl)-4-((2-hydroxyacetamido)methyl)-N-((trans-4-(5-methoxy-6-methylpyridin-2-yl)cyclohexyl)methyl) cyclohexanecarboxamide], the EC50 is 250 to 1000 nM.

With `CNC(=O)O[C@H]1CC[C@H](C(=O)N(C[C@H]2CC[C@H](c3ccc(OC)c(C)n3)CC2)c2cc(-c3cnc(C(C)C)s3)ccn2)CC1` [Compound 5.04, trans-4-((4-(2-Isopropylthiazol-5-yl)pyridin-2-yl)((trans-4-(5-methoxy-6-methylpyridin-2-yl)cyclohexyl)methyl)carbamoyl)cyclohexyl methylcarbamate], the EC50 was ≤ 250 nM.

`COc1ccc(C23CCC(CN(c4cccc(-c5cnn(C6CC6)c5)c4)C(=O)[C@H]4CC[C@H](NC(=O)OC(C)(C)C)CC4)(CC2)CC3)cc1C` [Compound 18.15, tert-Butyl (4-((3-(1-cyclopropyl-1H-pyrazol-4-yl)phenyl)((4-(4-methoxy-3-methylphenyl)bicyclo[2.2.2]octan-1-yl)methyl)carbamoyl)cyclohexyl) trans-carbamate]: the EC50 is ≤ 250 nM.

Consider `COc1ccc([C@H]2CC[C@H](CN(c3cc(-c4coc(C5CC5)n4)ccn3)C(=O)[C@H]3CC[C@H](OC(=O)NC(C)C)CC3)CC2)nc1C` [Compound 6.58, trans-4-((4-(2-Cyclopropyloxazol-4-yl)pyridine-2-yl)((trans-4-(5-methoxy-6-methylpyridin-2-yl)cyclohexyl)methyl)carbamoyl)cyclohexyl isopropylcarbamate], for which the EC50 is ≤ 250 nM.

As for `COc1ncc(-c2cccc(N(C[C@H]3CC[C@H](c4ccc(OC)c(C)c4)CC3)C(=O)[C@H]3CC[C@H](C(=O)O)CC3)c2)s1` [Compound 17.01, trans-4-(((trans-4-(4-Methoxy-3-methylphenyl)cyclohexyl)methyl)(3-(2-methoxythiazol-5-yl)phenyl)carbamoyl)cyclohexanecarboxylic acid], the EC50 is ≤ 250 nM.

In the case of `COc1ccc([C@H]2CC[C@H](CN(c3cc(-c4coc(C5CC5)n4)ccn3)C(=O)[C@H]3CC[C@H](OC(=O)N(C)CC(C)(C)O)CC3)CC2)nc1C` [Compound 6.86, trans-4-((4-(2-Cyclopropyloxazol-4-yl)pyridin-2-yl)((trans-4-(5-methoxy-6-methylpyridin-2-yl)cyclohexyl)methyl)carbamoyl)cyclohexyl (2-hydroxy-2-methylpropyl)(methyl)carbamate], the EC50 is ≤ 250 nM.

For `COc1ccc([C@H]2CC[C@H](CN(c3cccc(-c4cnn(C5CC5)c4)c3)C(=O)[C@H]3CC[C@H](OC(=O)NCCCO)CC3)CC2)cc1C` [Compound 4.10, trans-4-((3-(1-Cyclopropyl-1H-pyrazol-4-yl)phenyl)((trans-4-(4-methoxy-3-methylphenyl)cyclohexyl)methyl)carbamoyl)cyclohexyl (3-hydroxypropyl)carbamate], the EC50 was ≤ 250 nM.

Regarding `COc1ncc(-c2cccc(N(C[C@H]3CC[C@H](c4ccc(OC)c(C)c4)CC3)C(=O)[C@H]3CC[C@H](CNS(C)(=O)=O)CC3)c2)s1` [Compound 25.08, trans-N-((trans-4-(4-Methoxy-3-methylphenyl)cyclohexyl)methyl)-N-(3-(2-methoxythiazol-5-yl)phenyl)-4-(methylsulfonamidomethyl) cyclohexanecarboxamide], the EC50 is ≤ 250 nM.

Consider `COc1ccc([C@H]2CC[C@H](CN(c3cccc(-c4cnn(C5CC5)c4)c3)C(=O)[C@H]3CC[C@H](OC(N)=O)CC3)CC2)cc1C` [Compound 1.06, trans-4-((3-(1-Cyclopropyl-1H-pyrazol-4-yl)phenyl)((trans-4-(4-methoxy-3-methylphenyl)cyclohexyl)methyl)carbamoyl)cyclohexyl carbamate], for which the EC50 is ≤ 250 nM.

With `COc1ccc([C@H]2CC[C@H](CN(c3cccc(-c4cnc(C5CC5)s4)c3)C(=O)[C@H]3CC[C@H](CC(=O)O)CC3)CC2)cc1C#N` [Compound 20, 2-(trans-4-(((trans-4-(3-Cyano-4-methoxyphenyl)cyclohexyl)methyl)(3-(2-cyclopropylthiazol-5-yl)phenyl)carbamoyl)cyclohexyl)acetic acid], the EC50 is ≤ 250 nM.

For the molecule `CNC(=O)O[C@H]1CC[C@H](C(=O)N(C[C@H]2CC[C@H](c3ccc(OC)c(C#N)n3)CC2)c2cccc(-c3cnn(C(C)C)c3)c2)CC1` [Compound 5.28, trans-4-(((trans-4-(6-Cyano-5-methoxypyridin-2-yl)cyclohexyl)methyl)(3-(1-isopropyl-1H-pyrazol-4-yl)phenyl)carbamoyl)cyclohexyl methylcarbamate], the EC50 is ≤ 250 nM.

On to `CNC(=O)O[C@H]1CC[C@H](C(=O)N(C[C@H]2CC[C@H](c3ccc(OC)c(C)c3)CC2)c2cc(-c3ccc(N(C)C)nc3)ccn2)CC1` [Compound 5.40, trans-4-((6-(Dimethylamino)-[3,4′-bipyridin]-2′-yl)((trans-4-(4-methoxy-3-methylphenyl)cyclohexyl)methyl)carbamoyl)cyclohexyl methylcarbamate], for which the EC50 was ≤ 250 nM.

With `COc1ccc([C@H]2CC[C@H](CN(c3cccc(-c4cnn(C(C)C)c4)c3)C(=O)[C@H]3CC[C@H](OC(=O)NCCO)CC3)CC2)nc1C` [Compound 6.15, trans-4-((3-(1-Isopropyl-1H-pyrazol-4-yl)phenyl)((trans-4-(5-methoxy-6-methylpyridin-2-yl)cyclohexyl)methyl)carbamoyl)cyclohexyl (2-hydroxyethyl)carbamate], the EC50 is ≤ 250 nM.

As for `COc1ccc([C@H]2CC[C@H](CN(c3cc(-c4coc(C5CC5)n4)ccn3)C(=O)[C@H]3CC[C@H](OC(=O)N4CC(CO)C4)CC3)CC2)nc1C` [Compound 7.80, trans-4-(4-(2-Cyclopropyloxazol-4-yl)pyridine-2-yl)((trans-4-(5-methoxy-6-methylpyridin-2-yl)cyclohexyl)methyl) carbamoyl)cyclohexyl 3-(hydroxymethyl)azetidine-1-carboxylate], the EC50 is ≤ 250 nM.

Regarding `COc1ccc([C@H]2CC[C@H](CN(c3cccc(-c4coc(C5CC5)n4)c3)C(=O)[C@H]3CC[C@H](OC(=O)N4CC(O)C4)CC3)CC2)cc1C` [Compound 7.62, trans-4-((3-(2-Cyclopropyloxazol-4-yl)phenyl)((trans-4-(4-methoxy-3-methylphenyl)cyclohexyl)methyl)carbamoyl)cyclohexyl 3-hydroxyazetidine-1-carboxylate], the EC50 is ≤ 250 nM.

Consider `CNC(=O)O[C@H]1CC[C@H](C(=O)N(C[C@H]2CC[C@H](c3ccc(OC)c(C#N)n3)CC2)c2cc(-c3cnn(C(C)C)c3)ccn2)CC1` [Compound 5.26, trans-4-(((trans-4-(6-Cyano-5-methoxypyridin-2-yl)cyclohexyl)methyl)(4-(1-isopropyl-1H-pyrazol-4-yl)pyridin-2-yl)carbamoyl)cyclohexyl methylcarbamate], for which the EC50 was ≤ 250 nM.

For `COc1ccc([C@H]2CC[C@H](CN(c3cc(-c4coc(C5CC5)n4)ccn3)C(=O)[C@H]3CC[C@H](OC(=O)N4CC(CS(C)(=O)=O)C4)CC3)CC2)nc1C` [Compound 7.101, trans-4-((4-(2-Cyclopropyloxazol-4-yl)pyridine-2-yl)((trans-4-(5-methoxy-6-methylpyridin-2-yl)cyclohexyl)methyl)carbamoyl)cyclohexyl 3-((methylsulfonyl)methyl)azetidine-1-carboxylate], the EC50 was ≤ 250 nM.
